{
  "source": "patent US8192962B2",
  "about": "“Processes for detecting toxic substances” (Daikin Industries, Ltd., priority 2001, dated 2012)",
  "tested_on": "Unknown protein yeast genes",
  "experiment": "DNA chip mRNA expression in yeast, unknown protein yeast genes (Table 1)",
  "format": "cell-based, Saccharomyces cerevisiae S288C",
  "procedure,_shortened": "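Untreated cultures served as reference for log-phase S288C yeast given a growth-inhibiting, non-lethal toxicant dose for 2 h at 25° C. in YPD. Gene expression was measured on a whole-genome DNA chip from Cy3/Cy5-labeled cDNA.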",
  "data": [
    {"smiles": "Oc1cc(Cl)c(Cl)cc1Cl", "note": "[(6), 2,4,5-trichlorophenol]", "values": [
      {"measurement": "The level of expressed mRNA in the presence of chemical substance/The level of expressed mRNA in the absence of chemical substance", "setting": "yeast gene YKL086W, incubated two hours with chemical substance", "result": 1.0},
      {"measurement": "The level of expressed mRNA in the presence of chemical substance/The level of expressed mRNA in the absence of chemical substance", "setting": "yeast gene YKL151C, incubated two hours with chemical substance", "result": 2.0},
      {"measurement": "The level of expressed mRNA in the presence of chemical substance/The level of expressed mRNA in the absence of chemical substance", "setting": "yeast gene YKL153W, incubated two hours with chemical substance", "result": 2.9},
      {"measurement": "The level of expressed mRNA in the presence of chemical substance/The level of expressed mRNA in the absence of chemical substance", "setting": "yeast gene YKL195W, incubated two hours with chemical substance", "result": 2.5},
      {"measurement": "The level of expressed mRNA in the presence of chemical substance/The level of expressed mRNA in the absence of chemical substance", "setting": "yeast gene YKR018C", "result": 1.7},
      {"measurement": "The level of expressed mRNA in the presence of chemical substance/The level of expressed mRNA in the absence of chemical substance", "setting": "yeast gene YKR049C", "result": 3.0},
      {"measurement": "The level of expressed mRNA in the presence of chemical substance/The level of expressed mRNA in the absence of chemical substance", "setting": "yeast gene YKR091W, incubated two hours with chemical substance", "result": 1.0},
      {"measurement": "The level of expressed mRNA in the presence of chemical substance/The level of expressed mRNA in the absence of chemical substance", "setting": "yeast gene YLR054C, incubated two hours with chemical substance", "result": 1.2},
      {"measurement": "The level of expressed mRNA in the presence of chemical substance/The level of expressed mRNA in the absence of chemical substance", "setting": "yeast gene YLR149C, incubated two hours with chemical substance", "result": 1.4},
      {"measurement": "The level of expressed mRNA in the presence of chemical substance/The level of expressed mRNA in the absence of chemical substance", "setting": "yeast gene YLR152C, incubated two hours with chemical substance", "result": 2.1},
      {"measurement": "The level of expressed mRNA in the presence of chemical substance/The level of expressed mRNA in the absence of chemical substance", "setting": "yeast gene YLR194C, incubated two hours with chemical substance", "result": 0.9},
      {"measurement": "The level of expressed mRNA in the presence of chemical substance/The level of expressed mRNA in the absence of chemical substance", "setting": "yeast gene YLR324W, incubated two hours with chemical substance", "result": 1.2},
      {"measurement": "The level of expressed mRNA in the presence of chemical substance/The level of expressed mRNA in the absence of chemical substance", "setting": "yeast gene YLR328W", "result": 4.8},
      {"measurement": "The level of expressed mRNA in the presence of chemical substance/The level of expressed mRNA in the absence of chemical substance", "setting": "yeast gene YLR350W, incubated two hours with chemical substance", "result": 1.6},
      {"measurement": "The level of expressed mRNA in the presence of chemical substance/The level of expressed mRNA in the absence of chemical substance", "setting": "yeast gene YLR387C, incubated two hours with chemical substance", "result": 1.9},
      {"measurement": "The level of expressed mRNA in the presence of chemical substance/The level of expressed mRNA in the absence of chemical substance", "setting": "yeast gene YLR460C", "result": 0.6},
      {"measurement": "The level of expressed mRNA in the presence of chemical substance/The level of expressed mRNA in the absence of chemical substance", "setting": "yeast gene YML117W, incubated two hours with chemical substance", "result": 1.0},
      {"measurement": "The level of expressed mRNA in the presence of chemical substance/The level of expressed mRNA in the absence of chemical substance", "setting": "yeast gene YMR009W, incubated two hours with chemical substance", "result": 1.2},
      {"measurement": "The level of expressed mRNA in the presence of chemical substance/The level of expressed mRNA in the absence of chemical substance", "setting": "yeast gene YMR040W", "result": 2.8},
      {"measurement": "The level of expressed mRNA in the presence of chemical substance/The level of expressed mRNA in the absence of chemical substance", "setting": "yeast gene YMR067C, incubated two hours with chemical substance", "result": 1.4},
      {"measurement": "The level of expressed mRNA in the presence of chemical substance/The level of expressed mRNA in the absence of chemical substance", "setting": "yeast gene YMR090W", "result": 3.8},
      {"measurement": "The level of expressed mRNA in the presence of chemical substance/The level of expressed mRNA in the absence of chemical substance", "setting": "yeast gene YMR095C, incubated two hours with chemical substance", "result": 0.7},
      {"measurement": "The level of expressed mRNA in the presence of chemical substance/The level of expressed mRNA in the absence of chemical substance", "setting": "yeast gene YMR097C, incubated two hours with chemical substance", "result": 1.2},
      {"measurement": "The level of expressed mRNA in the presence of chemical substance/The level of expressed mRNA in the absence of chemical substance", "setting": "yeast gene YMR102C, incubated two hours with chemical substance", "result": 6.3},
      {"measurement": "The level of expressed mRNA in the presence of chemical substance/The level of expressed mRNA in the absence of chemical substance", "setting": "yeast gene YMR107W, incubated two hours with chemical substance", "result": 1.0},
      {"measurement": "The level of expressed mRNA in the presence of chemical substance/The level of expressed mRNA in the absence of chemical substance", "setting": "yeast gene YMR180C, incubated two hours with chemical substance", "result": 2.4},
      {"measurement": "The level of expressed mRNA in the presence of chemical substance/The level of expressed mRNA in the absence of chemical substance", "setting": "yeast gene YMR184W, incubated two hours with chemical substance", "result": 0.9},
      {"measurement": "The level of expressed mRNA in the presence of chemical substance/The level of expressed mRNA in the absence of chemical substance", "setting": "yeast gene YMR191W, incubated two hours with chemical substance", "result": 1.0},
      {"measurement": "The level of expressed mRNA in the presence of chemical substance/The level of expressed mRNA in the absence of chemical substance", "setting": "yeast gene YMR295C, incubated two hours with chemical substance", "result": 1.9},
      {"measurement": "The level of expressed mRNA in the presence of chemical substance/The level of expressed mRNA in the absence of chemical substance", "setting": "yeast gene YMR316W, incubated two hours with chemical substance", "result": 0.7},
      {"measurement": "The level of expressed mRNA in the presence of chemical substance/The level of expressed mRNA in the absence of chemical substance", "setting": "yeast gene YNL044W, incubated two hours with chemical substance", "result": 0.9},
      {"measurement": "The level of expressed mRNA in the presence of chemical substance/The level of expressed mRNA in the absence of chemical substance", "setting": "yeast gene YNL074C, incubated two hours with chemical substance", "result": 1.7},
      {"measurement": "The level of expressed mRNA in the presence of chemical substance/The level of expressed mRNA in the absence of chemical substance", "setting": "yeast gene YNL092W, incubated two hours with chemical substance", "result": 1.2},
      {"measurement": "The level of expressed mRNA in the presence of chemical substance/The level of expressed mRNA in the absence of chemical substance", "setting": "yeast gene YNL115C, incubated two hours with chemical substance", "result": 9.1},
      {"measurement": "The level of expressed mRNA in the presence of chemical substance/The level of expressed mRNA in the absence of chemical substance", "setting": "yeast gene YNL156C, incubated two hours with chemical substance", "result": 1.3},
      {"measurement": "The level of expressed mRNA in the presence of chemical substance/The level of expressed mRNA in the absence of chemical substance", "setting": "yeast gene YNL234W, incubated two hours with chemical substance", "result": 1.3},
      {"measurement": "The level of expressed mRNA in the presence of chemical substance/The level of expressed mRNA in the absence of chemical substance", "setting": "yeast gene YNL281W, incubated two hours with chemical substance", "result": 0.9},
      {"measurement": "The level of expressed mRNA in the presence of chemical substance/The level of expressed mRNA in the absence of chemical substance", "setting": "yeast gene YNL305C, incubated two hours with chemical substance", "result": 1.1},
      {"measurement": "The level of expressed mRNA in the presence of chemical substance/The level of expressed mRNA in the absence of chemical substance", "setting": "yeast gene YNR068C, incubated two hours with chemical substance", "result": 0.4},
      {"measurement": "The level of expressed mRNA in the presence of chemical substance/The level of expressed mRNA in the absence of chemical substance", "setting": "yeast gene YOL032W, incubated two hours with chemical substance", "result": 2.1},
      {"measurement": "The level of expressed mRNA in the presence of chemical substance/The level of expressed mRNA in the absence of chemical substance", "setting": "yeast gene YOL036W, incubated two hours with chemical substance", "result": 1.2},
      {"measurement": "The level of expressed mRNA in the presence of chemical substance/The level of expressed mRNA in the absence of chemical substance", "setting": "yeast gene YOL047C, incubated two hours with chemical substance", "result": 1.5},
      {"measurement": "The level of expressed mRNA in the presence of chemical substance/The level of expressed mRNA in the absence of chemical substance", "setting": "yeast gene YOL071W, incubated two hours with chemical substance", "result": 1.7},
      {"measurement": "The level of expressed mRNA in the presence of chemical substance/The level of expressed mRNA in the absence of chemical substance", "setting": "yeast gene YOL082W, incubated two hours with chemical substance", "result": 1.8},
      {"measurement": "The level of expressed mRNA in the presence of chemical substance/The level of expressed mRNA in the absence of chemical substance", "setting": "yeast gene YOL083W, incubated two hours with chemical substance", "result": 4.5},
      {"measurement": "The level of expressed mRNA in the presence of chemical substance/The level of expressed mRNA in the absence of chemical substance", "setting": "yeast gene YOL117W, incubated two hours with chemical substance", "result": 2.0},
      {"measurement": "The level of expressed mRNA in the presence of chemical substance/The level of expressed mRNA in the absence of chemical substance", "setting": "yeast gene YOL131W, incubated two hours with chemical substance", "result": 1.1},
      {"measurement": "The level of expressed mRNA in the presence of chemical substance/The level of expressed mRNA in the absence of chemical substance", "setting": "yeast gene YOL150C", "result": 5.2},
      {"measurement": "The level of expressed mRNA in the presence of chemical substance/The level of expressed mRNA in the absence of chemical substance", "setting": "yeast gene YOL162W, incubated two hours with chemical substance", "result": 1.2},
      {"measurement": "The level of expressed mRNA in the presence of chemical substance/The level of expressed mRNA in the absence of chemical substance", "setting": "yeast gene YOR019W, incubated two hours with chemical substance", "result": 1.3},
      {"measurement": "The level of expressed mRNA in the presence of chemical substance/The level of expressed mRNA in the absence of chemical substance", "setting": "yeast gene YOR197W, incubated two hours with chemical substance", "result": 1.3},
      {"measurement": "The level of expressed mRNA in the presence of chemical substance/The level of expressed mRNA in the absence of chemical substance", "setting": "yeast gene YPL087W, incubated two hours with chemical substance", "result": 4.3},
      {"measurement": "The level of expressed mRNA in the presence of chemical substance/The level of expressed mRNA in the absence of chemical substance", "setting": "yeast gene YPL196W, incubated two hours with chemical substance", "result": 2.0},
      {"measurement": "The level of expressed mRNA in the presence of chemical substance/The level of expressed mRNA in the absence of chemical substance", "setting": "yeast gene YPL206C, incubated two hours with chemical substance", "result": 1.8},
      {"measurement": "The level of expressed mRNA in the presence of chemical substance/The level of expressed mRNA in the absence of chemical substance", "setting": "yeast gene YPL222W, incubated two hours with chemical substance", "result": 2.2},
      {"measurement": "The level of expressed mRNA in the presence of chemical substance/The level of expressed mRNA in the absence of chemical substance", "setting": "yeast gene YPR023C, incubated two hours with chemical substance", "result": 1.4},
      {"measurement": "The level of expressed mRNA in the presence of chemical substance/The level of expressed mRNA in the absence of chemical substance", "setting": "yeast gene YPR151C, incubated two hours with chemical substance", "result": 1.6}
    ]}
  ]
}
